We go through four compounds from publication PMC10313705, “Structure and transport mechanism of the human calcium pump SPCA1” (Cell Research, 2023).

The target of experiment [1] is T1, hSPCA1 (hSPCA1a) (Homo sapiens, UniProt P98194).
T1 sequence (P98194 1-919): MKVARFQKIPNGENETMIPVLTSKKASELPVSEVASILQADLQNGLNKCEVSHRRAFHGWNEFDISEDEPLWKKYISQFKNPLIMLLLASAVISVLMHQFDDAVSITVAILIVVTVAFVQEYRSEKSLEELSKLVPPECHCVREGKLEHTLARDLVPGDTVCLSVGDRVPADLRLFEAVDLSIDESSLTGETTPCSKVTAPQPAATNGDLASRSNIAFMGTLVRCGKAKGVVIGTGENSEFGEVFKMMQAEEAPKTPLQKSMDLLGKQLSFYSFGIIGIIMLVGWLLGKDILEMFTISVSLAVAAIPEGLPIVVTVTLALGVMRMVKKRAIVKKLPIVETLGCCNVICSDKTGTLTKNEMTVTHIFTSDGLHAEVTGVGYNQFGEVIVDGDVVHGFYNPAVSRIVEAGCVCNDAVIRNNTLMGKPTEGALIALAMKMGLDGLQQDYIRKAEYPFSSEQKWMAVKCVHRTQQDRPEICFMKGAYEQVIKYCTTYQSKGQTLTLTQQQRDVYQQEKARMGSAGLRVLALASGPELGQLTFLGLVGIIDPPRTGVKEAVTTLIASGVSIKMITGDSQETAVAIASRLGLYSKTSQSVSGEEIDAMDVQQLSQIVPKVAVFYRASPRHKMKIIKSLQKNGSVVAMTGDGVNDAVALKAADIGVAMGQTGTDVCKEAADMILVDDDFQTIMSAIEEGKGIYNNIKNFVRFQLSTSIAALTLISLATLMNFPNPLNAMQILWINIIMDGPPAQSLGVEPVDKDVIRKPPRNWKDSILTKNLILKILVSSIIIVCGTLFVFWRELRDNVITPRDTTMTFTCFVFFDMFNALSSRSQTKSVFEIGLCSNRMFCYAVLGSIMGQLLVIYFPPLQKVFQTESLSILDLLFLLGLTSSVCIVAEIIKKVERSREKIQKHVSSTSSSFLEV
Put plainly: cryo-EM structure. The format is binding. Also noted: gene ATP2C1; full-length (Met1-Val919), C-terminal 2x Strep tag, expressed in HEK293F cells, purified in DDM/CHS then digitonin; residues 1-15 and 906-919 not modelled. Conditions: phosphate transition-state analogue at Asp350; E2~P state; 10 mM NaF, 2 mM AlCl3, Mg2+, no added Ca2+, pH 8.0.

For experiment [2], the target named is T1, hSPCA1 (hSPCA1a). Also noted: gene ATP2C1. The settings on record: ATP hydrolysis by purified protein in digitonin.
The target of experiment [3] is T1, hSPCA1 (hSPCA1a). The experiment can be described thus: cryo-EM structure ([…] Å). The format is binding. Also noted: gene ATP2C1; full-length (Met1-Val919), C-terminal 2x Strep tag, expressed in HEK293F cells, purified in DDM/CHS then digitonin; residues 1-15 and 906-919 not modelled. The settings on record: CaE1P-ADP state; 5 mM ADP, 5 mM NaF, 1 mM AlCl3; Ca2+, Mg2+, pH 8.0.

In experiment [4] the target is T1, hSPCA1 (hSPCA1a). More on the design: gene ATP2C1. The settings on record: phosphate analogue at Asp350; 10 mM NaF, 2 mM BeSO4, 1 mM CaCl2, Mg2+, pH 8.0; CaE2P (8IWS) and early E2P (8IWT) states.

Take `[F][Al-]([F])([F])[F]` [AlF4^–]: the cryo-EM structure entry at hSPCA1 (hSPCA1a) [1] is recorded as “The EM densities derived from AlF4^– were clearly visible near Asp350”. As to `Nc1ncnc2c1ncn2[C@@H]1O[C@H](COP(=O)(O)OP(=O)(O)OP(=O)(O)O)[C@@H](O)[C@H]1O` [ATP], at hSPCA1 (hSPCA1a) [2], the “ATPase assay, Pi release kit (absorbance at 636 nm)” value was “an ATPase activity assay demonstrated that it has ATP hydrolysis activity”. Consider `Nc1ncnc2c1ncn2[C@@H]1O[C@H](COP(=O)(O)OP(=O)(O)O)[C@@H](O)[C@H]1O` [ADP], for which, on hSPCA1 (hSPCA1a) [3], the “cryo-EM structure (3.71 Å)” value is given as “the ADP molecule (dark gray) in the CaE1P-ADP state”.

Regarding `[F][Be-]([F])[F]` [BeF3^–], on hSPCA1 (hSPCA1a) [4], the “cryo-EM structures (3.42 Å CaE2P; 3.25 Å early E2P)” value is “allowed us to trace the BeF3^– densities which were clearly visible near Asp350”.
